In assay [1] the test system is neutrophils. As to the kind of experiment: Measurement of neutrophil apoptosis (Annexin V FITC / propidium iodide, flow cytometry). The class given is cell-based. Particulars: 10 nM, 8 h, isolated human neutrophils, Annexin V positive / PI negative cells taken as apoptotic. An excerpt:
The neutrophils were isolated from the peripheral blood of healthy human donors as described previously (Afford et al 1992). Briefly, blood was collected into tubes containing EDTA followed by usage of 2% dextran solution for sedimentation of erythrocytes. The neutrophils were then isolated from leukocyte layer using a discontinuous Percoll density gradient centrifugation (Sigma- Aldrich, Poole, UK) and resuspended in RPMI 1640 medium (Sigma- Aldrich) supplemented with 10% heat-inactivated fetal bovine serum (Sera Laboratories International, Bolney, UK), 2 mM glutamine, 100 U/ml penicillin and 100 µg/ml streptomycin (Sigma-Aldrich). The purity of isolated neutrophils was assessed by Giemsa staining (Diff-Quick, Baxter Healthcare, UK) and light microscopy and was routinely greater than 97%. The neutrophils were then cultured in the presence of novel compounds (single concentration of 10 nM, or several increasing concentrations ranging from 10 nM to 1 µM) and other stimulating factors for 8 h.
For evaluation of early apoptosis, neutrophils were double stained with anti-Annexin V FITC-conjugated antibody (BD Pharmingen) binding extracellular phosphatidylserine and propidium iodide detecting late apoptotic and necrotic cells. After appropriate treatment, cells were washed with PBS and then resuspended in 100 µl of Annexin V buffer (10 mM HEPES, pH 7.4; 140 mM NaCl; 2.5 mM CaCl2). 1 µl of anti-Annexin V FITC-conjugated antibody was added and cells were then incubated at room temperature for 10 minutes followed by addition of propidium iodide at final concentration of 5 µg/ml. Fluorescence was analyzed by flow cytometry (BD Accuri C6 Flow Cytometer, Accuri Cytometers Inc.) with Annexin V positive / PI negative cells taken as apoptotic.
A general note: Flow cytometry measures light scatter and fluorescence of single cells or particles in a stream.

The test system of assay [2] is neutrophils. The assay can be described thus: Superoxide generation assay (luminol-based chemiluminescent assay, fMLP stimulus). The class given is cell-based. Particulars: isolated human neutrophils, GM-CSF present, compound 1 h, fMLP 2.5 µM, luminol 100 µM (Figure 2). How it is done: Isolated human neutrophils were incubated in the presence of prosurvival factor GM-CSF with or without the compound at indicated concentrations for 1 h.
Levels of reactive oxygen species (ROS) generated by neutrophils were measured using a luminol-based chemiluminescent assay (Gyllenhammar 1987). After treatment, neutrophils were resuspended in Hank's Balanced Salt Solution (HBSS) containing calcium and magnesium (Gibco) and transferred to opaque 96 well plates (Greiner Bio-One GmbH). Luminol was then added to each well at final concentration of 100 µM followed by a measuring of chemiluminescence in response to the stimulus fMLP (2.5 µM) at 1 min intervals for 30 min by means of a luminometer (Centro LB 960, Berthold Technologies, Bad Wildbad, Germany).

Consider `CC(CCO)Nc1nc(NCc2ccc(-c3cccs3)cc2)c2[nH]nc(C(C)C)c2n1` (racemic) [compound 44], for which, in assay [1], the “% of apoptotic cells” value is 38%.

Consider `CC(C)c1n[nH]c2c(Cl)nc(S(C)(=O)=O)nc12` [compound 1, 7-Chloro-3-isopropyl-5-methylsulfonyl-1H-pyrazolo[4,3-d]pyrimidine], for which, in assay [1], the “% of apoptotic cells” value stood at 32%.

As to `CC(C)c1n[nH]c2c(NCc3ccc(-c4ccco4)cc3)nc(S(C)(=O)=O)nc12` [compound 2, 3-Isopropyl-5-methylsulfonyl-7-[4-(furan-2-yl)benzyl]amino-1H-pyrazolo[4,3-d]pyrimidine], the “% of apoptotic cells” value in assay [1] is reported as 41%.

As to `CC(C)c1n[nH]c2c(NCc3ccc(-c4cccs4)cc3)nc(S(C)(=O)=O)nc12` [compound 3, 3-Isopropyl-5-methylsulfonyl-7-[4-(thiophen-2-yl)benzyl]amino-1H-pyrazolo[4,3-d]pyrimidine], in assay [1], the “% of apoptotic cells” value was 58%.

In the case of `CC(C)c1n[nH]c2c(NCc3ccc(-n4cccn4)cc3)nc(S(C)(=O)=O)nc12` [compound 6, 3-Isopropyl-5-methylsulfonyl-7-[4-(1H-pyrazol-1-yl)benzyl]amino-1H-pyrazolo[4,3-d]pyrimidine], the “% of apoptotic cells” value in assay [1] is 36%.

As for `CC(C)c1n[nH]c2c(NCc3ccc(-c4ccco4)cc3)nc(NCCO)nc12` [compound 7], in assay [1], the “% of apoptotic cells” value worked out at 47%.

With `CC(C)c1n[nH]c2c(NCc3ccc(-c4ccco4)cc3)nc(NCC(O)CN)nc12` (stereo not shown) [compound 15, 3-Isopropyl-5-(3-amino-2-hydroxypropyl)amino-7-[4-(furan-2-yl)benzyl]amino-1H-pyrazolo[4,3-d]pyrimidine], the “% of apoptotic cells” value in assay [1] turned out to be 52%. The “neutrophil oxygen radical production induced by fMLP” value in assay [2] is listed as “inhibits”.

Take `CC(C)c1n[nH]c2c(NCc3ccc(-c4ccco4)cc3)nc(NCCCCCCN)nc12` [compound 30]: in assay [1], the “% of apoptotic cells” value is 39%.

On to `CC(C)c1n[nH]c2c(NCc3ccc(-c4ccco4)cc3)nc(NCC(C)(C)O)nc12` [compound 31, 3-Isopropyl-5-(2-hydroxy-2-methylpropyl)amino-7-[4-(furan-2-yl)benzyl]amino-1H-pyrazolo[4,3-d]pyrimidine], for which the “% of apoptotic cells” value in assay [1] worked out at 50%.

For the compound `CC(C)c1n[nH]c2c(NCc3ccc(-c4cccs4)cc3)nc(NCC(C)(C)O)nc12` [compound 32, 3-Isopropyl-5-(2-hydroxy-2-methylpropyl)amino-7-[4-(thiophen-2-yl)benzyl]amino-1H-pyrazolo[4,3-d]pyrimidine], the “% of apoptotic cells” value in assay [1] is reported as 48%.

In the case of `CC(C)c1n[nH]c2c(NCc3ccc(-c4cccs4)cc3)nc(NCCC(C)(C)O)nc12` [compound 33], in assay [1], the “% of apoptotic cells” value turned out to be 36%.

Turning to `CC(C)c1n[nH]c2c(NCc3ccc(-c4cccs4)cc3)nc(NCC(O)CO)nc12` (stereo not shown) [compound 34], the “% of apoptotic cells” value in assay [1] turned out to be 52%.

In the case of `CC(C)c1n[nH]c2c(NCc3ccc(-c4cccs4)cc3)nc(NC[C@H](C)O)nc12` [compound 42], the “% of apoptotic cells” value in assay [1] came out at 57%.

As to `CC(C)c1n[nH]c2c(NCc3ccc(-c4cccs4)cc3)nc(N[C@H](C)CCO)nc12` [compound 45], the “% of apoptotic cells” value in assay [1] turned out to be 33%.

Consider `CC(C)c1n[nH]c2c(NCc3ccc(-n4cccn4)cc3)nc(NCCCCN)nc12` [compound 58], for which the “% of apoptotic cells” value in assay [1] is listed as 44%.

As for `CC(C)c1n[nH]c2c(NCc3ccc(-n4cccn4)cc3)nc(NCCCCCN)nc12` [compound 59], in assay [1], the “% of apoptotic cells” value is 49%.

As to `CC(C)c1n[nH]c2c(NCc3ccc(-n4cccn4)cc3)nc(NCCCCCCN)nc12` [compound 60], the “% of apoptotic cells” value in assay [1] was determined as 60%.

For `CC(C)c1n[nH]c2c(NCc3ccc(-n4cccn4)cc3)nc(NCC(O)CN)nc12` (stereo not shown) [compound 61, 3-Isopropyl-5-(3-amino-2-hydroxypropyl)amino-7-[4-(1H-pyrazol-1-yl)benzyl]amino-1H-pyrazolo[4,3-d]pyrimidine], the “% of apoptotic cells” value in assay [1] worked out at 40%.

Consider `CCN(CC)CCNc1nc(NCc2ccc(N3CCCC3)cc2)c2[nH]nc(C(C)C)c2n1` [compound 63], for which, in assay [1], the “% of apoptotic cells” value was found to be 39%.

As for `CCN(CC)C(C)CCNc1nc(NCc2ccc(N3CCCC3)cc2)c2[nH]nc(C(C)C)c2n1` (stereo not shown) [compound 65], in assay [1], the “% of apoptotic cells” value amounted to 56%.

Regarding `CC(C)c1n[nH]c2c(NCc3ccc(N4CCCC4)cc3)nc(NCC(C)(C)O)nc12` [compound 66], in assay [1], the “% of apoptotic cells” value stood at 34%.

Values taken from patent EP3325480B1, “5-SUBSTITUTED-7-[4-(SUBSTITUTED) BENZYL]AMINO-3-ISOPROPYLPYRAZOLO (4,3-D) PYRIMIDINES AS MEDICAMENTS” (Ustav experimentalni botaniky AV CR, v.v.i., priority 2015, dated 2017).
